Test system: bacterial isolates
Experiment: microbe, parasite or virus in culture
Assay type: cell-based

**Q.** KWKSFIKKLTSAAKKVVTTAKPLISS [MBI 26] was tested. Which FIC (S. aureus SA044, combination with Ciprofloxacin) did it give?
**A.** Its FIC is 0.63.

**Q.** What about the FIC (S. aureus SA7609, combination with Clindamycin) of the same sequence?
**A.** The FIC was 0.25.

**Q.** What about the FIC (S. aureus SA7609, combination with Methicillin) of the same sequence?
**A.** Its FIC is 0.56.

**Q.** And the FIC (S. aureus SA7610, combination with Clindamycin)?
**A.** The FIC was 0.63.

**Q.** What about the FIC (S. aureus SA7610, combination with Methicillin) of the same sequence?
**A.** The FIC was 0.31.

**Q.** What about the FIC (S. aureus SA7795, combination with Ampicillin) of the same sequence?
**A.** Its FIC is 0.52.

**Q.** What about the FIC (S. aureus SA7795, combination with Clindamycin) of the same sequence?
**A.** Its FIC is 0.53.

**Q.** What about the FIC (S. aureus SA7796, combination with Ampicillin) of the same sequence?
**A.** The FIC was 1.00.

**Q.** What about the FIC (S. aureus SA7796, combination with Clindamycin) of the same sequence?
**A.** Its FIC is 0.51.

**Q.** And the FIC (S. aureus SA7817, combination with Ampicillin)?
**A.** Its FIC is 0.50.

**Q.** What about the FIC (S. aureus SA7818, combination with Ampicillin) of the same sequence?
**A.** The FIC was 1.00.

**Q.** What about the FIC (S. aureus SA7818, combination with Erythromycin) of the same sequence?
**A.** Its FIC is 0.15.

**Q.** What about the FIC (S. aureus SA7821, combination with Erythromycin) of the same sequence?
**A.** Its FIC is 0.50.

**Q.** And the FIC (S. aureus SA7822, combination with Ampicillin)?
**A.** Its FIC is 0.25.

**Q.** And the FIC (S. aureus SA7823, combination with Ampicillin)?
**A.** The FIC was 0.25.

**Q.** What about the FIC (S. aureus SA7824, combination with Ampicillin) of the same sequence?
**A.** Its FIC is 1.00.

**Q.** What about the FIC (S. aureus SA7825, combination with Ampicillin) of the same sequence?
**A.** The FIC was 1.00.

**Q.** What about the FIC (S. aureus SA7825, combination with Erythromycin) of the same sequence?
**A.** The FIC was 1.00.

**Q.** And the FIC (S. aureus SA7834, combination with Ampicillin)?
**A.** The FIC was 0.53.

**Q.** What about the FIC (S. aureus SA7834, combination with Clindamycin) of the same sequence?
**A.** The FIC was 0.56.

**Q.** What about the FIC (S. aureus SA7835, combination with Ampicillin) of the same sequence?
**A.** Its FIC is 0.53.

**Q.** What about the FIC (S. aureus SA7836, combination with Ampicillin) of the same sequence?
**A.** The FIC was 0.75.

**Q.** What about the FIC (S. aureus SA7837, combination with Ampicillin) of the same sequence?
**A.** Its FIC is 1.00.

**Q.** And the FIC (S. aureus SAATCC25293, combination with Methicillin)?
**A.** The FIC was 0.50.

**Q.** And the FIC (S. aureus SAATCC29213, combination with Methicillin)?
**A.** The FIC was 0.31.

**Q.** What about the FIC (S. aureus SAW1133, combination with Methicillin) of the same sequence?
**A.** The FIC was 0.75.

**Q.** What about the “Peptide MIC + Piperacillin” value (S. aureus SB3MRSA) of the same sequence?
**A.** The value was 16 µg/mL.

**Q.** And the “Piperacillin MIC + Peptide” value (S. aureus SB3MRSA)?
**A.** The value was 64 µg/mL.

**Q.** And the “Peptide MIC Alone” value (S. aureus SB3MRSA, Piperacillin section)?
**A.** The value was greater than 128 µg/mL.

**Q.** What about the “Mupirocin MIC + Peptide” value (S. aureus SBSA4) of the same sequence?
**A.** The value was 30 µg/mL.

**Q.** And the “Peptide MIC + Mupirocin” value (S. aureus SBSA4)?
**A.** Its value is 8 µg/mL.

**Q.** And the “Peptide MIC Alone” value (S. aureus SBSA4, Mupirocin section)?
**A.** Its value is 32 µg/mL.

**Q.** And the “Ceftriaxone MIC + Peptide” value (S. epidermidis SE007)?
**A.** Its value is 2 µg/mL.

**Q.** What about the “Peptide MIC + Ceftriaxone” value (S. epidermidis SE007) of the same sequence?
**A.** Its value is 0.5 µg/mL.

**Q.** And the “Ceftriaxone MIC + Peptide” value (S. epidermidis SE012)?
**A.** The value was 16 µg/mL.

**Q.** And the “Peptide MIC + Ceftriaxone” value (S. epidermidis SE012)?
**A.** The value was 1 µg/mL.

**Q.** What about the “Peptide MIC + Tobramycin” value (S. epidermidis SE067) of the same sequence?
**A.** Its value is 0.25 µg/mL.

**Q.** What about the “Peptide MIC Alone” value (S. epidermidis SE067) of the same sequence?
**A.** Its value is 2 µg/mL.

**Q.** What about the “Tobramycin MIC + Peptide” value (S. epidermidis SE067) of the same sequence?
**A.** Its value is 64 µg/mL.

**Q.** What about the “Peptide MIC + Tobramycin” value (S. epidermidis SE068) of the same sequence?
**A.** Its value is 0.5 µg/mL.

**Q.** And the “Peptide MIC Alone” value (S. epidermidis SE068)?
**A.** The value was 2 µg/mL.

**Q.** And the “Tobramycin MIC + Peptide” value (S. epidermidis SE068)?
**A.** Its value is 4 µg/mL.

**Q.** And the FIC (S. epidermidis SE8406, combination with Clindamycin)?
**A.** Its FIC is 0.50.

**Q.** And the FIC (S. epidermidis SE8416, combination with Clindamycin)?
**A.** The FIC was 0.56.

**Q.** What about the FIC (S. epidermidis SE8505, combination with Ampicillin) of the same sequence?
**A.** The FIC was 1.00.

**Q.** What about the FIC (S. epidermidis SE8565, combination with Ampicillin) of the same sequence?
**A.** The FIC was 1.00.

**Q.** And the FIC (S. haemolyticus SH8459, combination with Ampicillin)?
**A.** Its FIC is 0.52.

**Q.** What about the FIC (S. haemolyticus SH8472, combination with Ampicillin) of the same sequence?
**A.** The FIC was 0.56.

**Q.** And the FIC (S. haemolyticus SH8563, combination with Ampicillin)?
**A.** Its FIC is 0.75.

**Q.** And the FIC (S. haemolyticus SH8564, combination with Ampicillin)?
**A.** Its FIC is 0.62.

**Q.** And the FIC (S. haemolyticus SH8575, combination with Ampicillin)?
**A.** Its FIC is 0.75.

**Q.** What about the FIC (S. haemolyticus SH8576, combination with Ampicillin) of the same sequence?
**A.** The FIC was 0.62.

**Q.** What about the FIC (S. haemolyticus SH8578, combination with Ampicillin) of the same sequence?
**A.** Its FIC is 1.00.

**Q.** What about the “Peptide MIC + Piperacillin” value (S. maltophilia 3) of the same sequence?
**A.** Its value is 4 µg/mL.

**Q.** And the “Piperacillin MIC + Peptide” value (S. maltophilia 3)?
**A.** Its value is 32 µg/mL.

**Q.** What about the “Peptide MIC Alone” value (S. maltophilia 3, Piperacillin section) of the same sequence?
**A.** Its value is 16 µg/mL.

**Q.** And the “Ciprofloxacin MIC + Peptide” value (S. maltophilia 34)?
**A.** The value was 0.25 µg/mL.

**Q.** What about the “Peptide MIC + Ciprofloxacin” value (S. maltophilia 34) of the same sequence?
**A.** The value was 8 µg/mL.

**Q.** What about the “Peptide MIC + Piperacillin” value (S. maltophilia 34) of the same sequence?
**A.** The value was 16 µg/mL.

**Q.** And the “Piperacillin MIC + Peptide” value (S. maltophilia 34)?
**A.** Its value is 4 µg/mL.

**Q.** And the “Peptide MIC Alone” value (S. maltophilia 34, Piperacillin section)?
**A.** Its value is greater than 32 µg/mL.

**Q.** And the “Ciprofloxacin MIC + Peptide” value (S. maltophilia 35)?
**A.** The value was 0.5 µg/mL.

**Q.** What about the “Peptide MIC + Ciprofloxacin” value (S. maltophilia 35) of the same sequence?
**A.** Its value is 16 µg/mL.

**Q.** And the “Peptide MIC + Piperacillin” value (S. maltophilia 35)?
**A.** The value was 16 µg/mL.

**Q.** And the “Piperacillin MIC + Peptide” value (S. maltophilia 35)?
**A.** The value was 4 µg/mL.

**Q.** And the “Peptide MIC Alone” value (S. maltophilia 35, Piperacillin section)?
**A.** Its value is greater than 32 µg/mL.

**Q.** And the “Gentamicin MIC + Peptide” value (S. maltophilia SMA016)?
**A.** The value was 32 µg/mL.

**Q.** What about the “Peptide MIC + Gentamicin” value (S. maltophilia SMA016) of the same sequence?
**A.** The value was 32 µg/mL.

**Q.** And the “Gentamicin MIC + Peptide” value (S. maltophilia SMA017)?
**A.** Its value is 16 µg/mL.

**Q.** And the “Peptide MIC + Gentamicin” value (S. maltophilia SMA017)?
**A.** The value was 2 µg/mL.

**Q.** What about the “Ceftriaxone MIC + Peptide” value (S. maltophilia SMA019) of the same sequence?
**A.** Its value is 64 µg/mL.

**Q.** And the “Peptide MIC + Ceftriaxone” value (S. maltophilia SMA019)?
**A.** Its value is 1 µg/mL.

**Q.** What about the “Ceftriaxone MIC + Peptide” value (S. maltophilia SMA020) of the same sequence?
**A.** The value was 32 µg/mL.

**Q.** And the “Peptide MIC + Ceftriaxone” value (S. maltophilia SMA020)?
**A.** Its value is 1 µg/mL.

**Q.** What about the “Amikacin MIC + Peptide” value (S. maltophilia SMA021) of the same sequence?
**A.** The value was 8 µg/mL.

**Q.** And the “Peptide MIC + Amikacin” value (S. maltophilia SMA021)?
**A.** Its value is 2 µg/mL.

**Q.** And the “Peptide MIC + Tobramycin” value (S. maltophilia SMA029)?
**A.** The value was 4 µg/mL.

**Q.** And the “Peptide MIC Alone” value (S. maltophilia SMA029)?
**A.** The value was greater than 128 µg/mL.

**Q.** What about the “Tobramycin MIC + Peptide” value (S. maltophilia SMA029) of the same sequence?
**A.** The value was 4 µg/mL.

**Q.** What about the “Peptide MIC + Tobramycin” value (S. maltophilia SMA030) of the same sequence?
**A.** Its value is 4 µg/mL.

**Q.** What about the “Peptide MIC Alone” value (S. maltophilia SMA030) of the same sequence?
**A.** Its value is greater than 128 µg/mL.

**Q.** What about the “Tobramycin MIC + Peptide” value (S. maltophilia SMA030) of the same sequence?
**A.** The value was 4 µg/mL.

**Q.** What about the “Amikacin MIC + Peptide” value (S. maltophilia SMA037) of the same sequence?
**A.** Its value is 16 µg/mL.

**Q.** What about the “Peptide MIC + Amikacin” value (S. maltophilia SMA037) of the same sequence?
**A.** Its value is 16 µg/mL.

**Q.** What about the “Peptide MIC + Piperacillin” value (S. marcescens 1) of the same sequence?
**A.** Its value is 0.5 µg/mL.

**Q.** What about the “Piperacillin MIC + Peptide” value (S. marcescens 1) of the same sequence?
**A.** The value was 32 µg/mL.

**Q.** And the “Peptide MIC Alone” value (S. marcescens 1, Piperacillin section)?
**A.** The value was greater than 128 µg/mL.

**Q.** And the FIC (peptide + Amikacin, A. baumannii ABI001)?
**A.** The FIC was 0.50.

**Q.** And the FIC (peptide + Amikacin, A. baumannii ABI003)?
**A.** The FIC was 0.38.

**Q.** What about the FIC (peptide + Amikacin, S. maltophilia SMA021) of the same sequence?
**A.** Its FIC is 0.13.

**Q.** And the FIC (peptide + Amikacin, S. maltophilia SMA037)?
**A.** The FIC was 0.19.

**Q.** What about the FIC (peptide + Ceftriaxone, A. baumannii ABI002) of the same sequence?
**A.** The FIC was 0.50.

**Q.** What about the FIC (peptide + Ceftriaxone, A. baumannii ABI005) of the same sequence?
**A.** Its FIC is 0.56.

Reference: patent publication US20020035061A1, “COMPOSITIONS AND METHODS FOR TREATING INFECTIONS USING CATIONIC PEPTIDES ALONE OR IN COMBINATION WITH ANTIBIOTICS” (priority 1996, published 2002)
